Source: patent publication US20070219180A1, “Muscle Relaxtion Accelerator and Therapeutic Agent for Muscular Tissue Diseases Such as Muscle Relaxation Failure” (priority 2004, published 2007)
Where “and” joins values, the source holds several entries; their conditions need not be identical. Identical values can stand only once.

Key:
white rabbits = experiment: Experiment 9: effect of the compound on blood pressure in rabbits; assay type: in vivo, rabbit; conditions: for Mean blood pressure relative to before administration (100%): before administration (defined as 100%)
Protocol: Effects of the compound on blood pressure were examined in the same way as described in Experiment 2. In this experiment, Control and Tests 6-9 were anesthetized with a single intravenous injection of 20 mg/kg methohexital sodium under artificial respiration (Type AR1Narishige Group) using endotracheal intubation. The 1,4-benzothiazepine derivative or pharmaceutically acceptable salt thereof was used as the compound in this experiment.
Five white rabbits (weight: 2.7-2.9 kg) were used in this experiment: a rabbit (weight: 2.8 kg, Control) that received control solution, a rabbit (weight: 2.7 kg, Test 6) that received the compound at 0.04 mg/kg/min, a rabbit (weight: 2.7 kg, Test 7) that received the compound at 0.04 mg/kg/min, a rabbit (weight: 2.9 kg, Test 8) that received the compound at 0.4 mg/kg/min, and a rabbit (weight: 2.8 kg, Test 9) that received the compound at 0.4 mg/kg/min.
Each rabbit was anesthetized with a single intravenous injection of 20 mg/kg methohexital sodium under artificial respiration (Type AR1 Narishige Group) using endotracheal intubation. Subsequently, α-chloralose was injected into the ear veins at 90 mg/kg/20 min. A DMSO solution of the compound was prepared by dissolving 100 mg of the compound in 1 ml of dimethylsulfoxide (DMSO), and stored at 4° C.
In this experiment, injection catheters for the compound for administration of drugs were inserted into the right external jugular veins of the rabbits and microchip catheters (SPC-320, Millar) for blood pressure measurement were inserted via the right common arteries. A 2-lead electrocardiogram was examined and blood pressure, cardiac rate, and electrocardiogram of the rabbits were monitored for 10 minutes. When the data stabilized, the electrocardiogram, systolic pressure and diastolic pressure of each rabbit were recorded on a personal computer via an A/D converter. The Control rabbit was administered 5% dextrose solution containing 0.1% DMSO as a control solution for 10 minutes at 0.1 ml/min. Test 6 and 7 rabbits were administered 5% dextrose containing the compound at 0.1 ml/min, and then the compound at an infusion rate of 0.04 mg/kg/min. Test 8 and 9 rabbits were administered 5% dextrose containing the compound at 0.1 ml/min, and then the compound at an infusion rate of 0.4 mg/kg/min.
Systolic pressure (mmHg) and diastolic pressure (mmHg) of the Control and Test rabbits were measured over 5 heart beats before administration of the solution, and 5 and 10 minutes after administration. The mean blood pressure (mmHg) was calculated from the systolic pressure (mmHg) and the diastolic pressure (mmHg), using the formula: mean blood pressure (mmHg)=[(systolic pressure+diastolic pressure)×½].

male Wistar rats = experiment: Experiment 11: protective effect on diastolic dysfunction of the myocardium (compound given before norepinephrine); assay type: in vivo, rat
Protocol: This experiment was performed to examine the protective effect of the compound on left ventricular diastolic dysfunction, and the compound was administered 5 minutes before administration of the norepinephrine solution referred to in Experiment 1, in which a calcium solution and a norepinephrine solution were administered after calcium administration for 20 minutes.
In this experiment, the 1,4-benzothiazepine derivative or pharmaceutically acceptable salt thereof was used as the compound.
Eight-week old male Wistar rats weighing 310-320 g were used in the study. The rats were anesthetized with 1,000 mg/kg of urethane and 80 mg/kg of α-chloralose by subperitoneal injection under artificial respiration (SN-480-7, Shinano) using endotracheal intubation. In this experiment, 100 mg of the compound was dissolved in 1 ml of dimethylsulfoxide (DMSO) and the resulting DMSO solution of the compound was stored at 4° C. Norepinephrine solution was prepared by dissolving 1 mg of norepinephrine in 41 μl of distilled water, at an infusion speed of […].
Firstly, continuous infusion catheters of calcium chloride solution or norepinephrine solution containing calcium chloride were inserted into the right external jugular veins of the rats, microchip catheters (SPC-320, Millar) was inserted into the left ventricles via the right common arteries, and the left ventricular end-diastolic pressure was measured. In addition, test drug infusion catheters were inserted into the right femoral veins.
A 1-lead electrocardiogram and the left ventricular pressure were recorded simultaneously on a personal computer via an A/D converter. The left ventricular diastolic pressure was determined as the mean of data measured over 20 heart beats every 5 minutes, when the pressure equivalent to the R wave of the electrocardiogram was defined as the left ventricular diastolic pressure. In the preparation step, blood pressure, pulse, and electrocardiogram of the rats were monitored for 15 minutes and allowed to stabilize, and then 5% dextrose solution containing calcium chloride (at a concentration based on the weight of the rat) was infused into the right external jugular vein for 20 minutes at 16.6 μl/min (12.0 mg/kg/min of calcium chloride).
Secondly, a norepinephrine solution containing calcium chloride without a change in dosage was immediately injected at a rate of 30 μg/kg/min via the right external jugular vein. After the start of administration, calcium chloride and norepinephrine were then continuously injected in the form of a norepinephrine solution containing calcium chloride. With continuous injection of calcium chloride and norepinephrine (in the form of a norepinephrine solution containing calcium chloride) via the right external jugular vein, 0.2 ml of 1% DMSO solution of the solvent used for the test compound was administered over 30 seconds to a rat (weight: 310 g, Control; this animal was not administered the compound) via the right femoral vein, 5 minutes before commencement of injection (intravenous injection) of calcium chloride and norepinephrine (in the form of a norepinephrine solution containing calcium chloride) via the right external jugular vein.
Similarly to the Control, with continuous injection of calcium chloride and norepinephrine (in the form of a norepinephrine solution containing calcium chloride) via the right external jugular vein, 0.2 ml of a 1% DMSO solution containing 0.3 mg/kg of the compound was administered over 30 seconds to a rat (weight: 320 g, defined as Test 14) via the right femoral vein, 5 minutes before commencement of injection (intravenous injection) via the right external jugular vein of calcium chloride and norepinephrine. Furthermore, in this experiment, after the test drug was injected over 30 seconds, a 1:10 dilution of the injected test drug was additionally administered at 10 μl/min from commencement of test drug injection to 15 minutes after the start of administration. […]

Which results are given for `COc1ccc2c(c1)CN(C(=O)CCN1CCC(Cc3ccccc3)CC1)CCS2` [the compound, 4-[3-(4-benzylpiperidine-1-yl)propionyl]-7-methoxy-2,3,4,5-tetrahydro-1,4-benzothiazepine]?
Mean blood pressure (white rabbits; infusion rate 0.04 mg/kg/min, after 5 minutes): 79.5 mmHg and 82.0 mmHg; Mean blood pressure (white rabbits; infusion rate 0.04 mg/kg/min, after 10 minutes): 85.9 mmHg and 93.4 mmHg; Mean blood pressure (white rabbits; infusion rate 0.04 mg/kg/min, before administration): 85.6 mmHg and 87.7 mmHg; Mean blood pressure relative to before administration (100%) (white rabbits; infusion rate 0.04 mg/kg/min): (100%); Mean blood pressure (white rabbits; infusion rate 0.4 mg/kg/min, after 5 minutes): 35.7 mmHg and 64.5 mmHg; Mean blood pressure (white rabbits; infusion rate 0.4 mg/kg/min, after 10 minutes): 41.7 mmHg and 46.3 mmHg; Mean blood pressure (white rabbits; infusion rate 0.4 mg/kg/min, before administration): 74.0 mmHg and 97.7 mmHg; Mean blood pressure relative to before administration (100%) (white rabbits; infusion rate 0.4 mg/kg/min): (100%); left ventricular end-diastolic pressure (male Wistar rats; Test 14: 0.3 mg/kg i.v. over 30 s 5 min before norepinephrine, then 0.02 mg/kg/min, 25 minutes before (5 minutes before the start of CaCl2), baseline): 7.2 mmHg; left ventricular end-diastolic pressure (male Wistar rats; Test 14: 0.3 mg/kg i.v. over 30 s then 0.02 mg/kg/min, 5 minutes after the start of test drug (just before the start of norepinephrine)): 8.0 mmHg; left ventricular end-diastolic pressure (male Wistar rats; Test 14: 0.3 mg/kg i.v. over 30 s then 0.02 mg/kg/min, 10 minutes after the start of test drug (5 minutes after the start of norepinephrine 30 μg/kg/min)): 14.5 mmHg; left ventricular end-diastolic pressure (male Wistar rats; Test 14: 0.3 mg/kg i.v. over 30 s then 0.02 mg/kg/min, 10 minutes before (10 minutes after the start of CaCl2), baseline): 7.9 mmHg; left ventricular end-diastolic pressure (male Wistar rats; Test 14: 0.3 mg/kg i.v. over 30 s then 0.02 mg/kg/min, 15 minutes after the start of test drug (10 minutes after the start of norepinephrine 30 μg/kg/min)): 18.3 mmHg; left ventricular end-diastolic pressure (male Wistar rats; Test 14: 0.3 mg/kg i.v. over 30 s then 0.02 mg/kg/min, 20 minutes before (just after the start of CaCl2), baseline): 7.7 mmHg; left ventricular end-diastolic pressure (male Wistar rats; Test 14: 0.3 mg/kg i.v. over 30 s then 0.02 mg/kg/min, just before test drug (20 minutes after the start of CaCl2), baseline): 8.1 mmHg
